Laboratory results reported in paper PMC8151276, “An Integrated Approach toward NanoBRET Tracers for Analysis of GPCR Ligand Engagement” (Molecules, 2021).

Molecular target: T1, HTR6 (Homo sapiens, UniProt P50406)
T1 construct: purchased Promega (in-house HiBiT-GPCR construct library, NanoBRET)
Assay: NanoBRET screen HiBiT-HTR6 in HEK293
Format: binding
Experimental: Each tracer candidate was screened across the entire library of HiBiT-GPCR constructs using NanoBRET as the detection modality. As depicted in Figure 4A, the specificity of interactions was evaluated through decrease in BRET due to competitive displacement of a bound tracer by excess parental compound. Each tracer was analyzed for binding to each HiBiT-GPCR fusion in the absence and in the presence of competing parental compound. Briefly, HEK293 cells were transfected with HiBiT-GPCR constructs diluted into promoterless DNA to reduce expression and maximize translocation to the cell surface. Each tracer candidate was then screened at concentrations of 1 μM and 0.1 μM across cells expressing these fusions. Cells were treated for 1.5 h with tracer either alone or in the presence of 20 μM competing parental compound (i.e., control). BRET was measured upon addition of purified LgBiT and subsequent complementation with HiBiT genetically fused to a GPCR. The specificity of interactions was assessed through a decrease in BRET signal due to competitive displacement of the bound tracer. To further gauge the robustness of these interactions, the fold response over the control (i.e., BRETtracer/BRETcontrol) was calculated. We chose a 1.5-fold response, which translates to ≥7-fold signal over noise as the minimal threshold required to score an interaction as positive.
HiBiT-GPCR DNA constructs were diluted in 10 mM Tris pH 8 to a final concentration of 0.01 μg/μL, arrayed in 96-well plates and stored at −20 °C. For transfection, HEK293 cells were suspended in Opti-MEM (without phenol red) supplemented with 2% fetal bovine serum (Seradigm) and 100 units/mL penicillin–streptomycin (Gibco) at a final concentration of 220,000 cells/mL and dispensed into white 96-well plates at 90 μL/well. Subsequent transfections and screens were carried using an Agilent Bravo Automated Liquid Handling Platform. First, the 96-well HiBiT DNA arrays were diluted 25-fold in Opti-MEM (without serum or phenol red) to a final concentration of 0.0004 μg/μL and 20 μL of the diluted DNAs were transferred into new 96-well plates. Next, promoterless carrier DNA (1 μg/μL) was diluted 25-fold (0.04 μg/μL) and then dispensed into the diluted arrays at 20 μL/well. Following brief mixing, Viafect transfection reagent (Promega) diluted 16-fold into Opti-MEM was dispensed into the plates at 40 μL/well. After mixing by pipetting, plates were incubated for 10 min on the pipetting station deck. The DNA-transfection reagent complexes were then added to plates containing cells. To facilitate the screen, 10 μL of DNA-transfection reagent complexes were added in duplicates to the top 4 and bottom 4 rows, resulting in two identical 48-well arrays per plate. Plates with transfected cells were incubated for 18–20 h at 37 °C/5% CO2. A screen of each tracer across the entire library using two different concentrations requires duplicate plates of transfected cells. Depending on the number of tracers being screened, transfections can be scaled up using the same ratios. The next day, for each tracer, four 20× screening solutions in tracer dilution buffer (Promega) were prepared: two duplicates at final concentration of 20 μM and two duplicates at a final concentration of 2 μM. […] The four resulting solutions were diluted 4-fold in Opti-MEM without serum or phenol red to generate 5× solutions (5 µM and 0.5 µM tracer +/− 100 μM competing compound). To screen the library, a BioTek MultiFlo FX liquid dispenser was used to dispense 22.5 µL of tracer solution to the top 4 rows and 22.5 µL tracer + competing compound solution to the 4 bottom rows. Plates were briefly mixed on an orbital shaker and incubated for 1.5 h at room temperature. […] Plates were briefly mixed on an orbital shaker and incubated for 15 min to allow complementation.

T1 sequence (P50406 whole entry): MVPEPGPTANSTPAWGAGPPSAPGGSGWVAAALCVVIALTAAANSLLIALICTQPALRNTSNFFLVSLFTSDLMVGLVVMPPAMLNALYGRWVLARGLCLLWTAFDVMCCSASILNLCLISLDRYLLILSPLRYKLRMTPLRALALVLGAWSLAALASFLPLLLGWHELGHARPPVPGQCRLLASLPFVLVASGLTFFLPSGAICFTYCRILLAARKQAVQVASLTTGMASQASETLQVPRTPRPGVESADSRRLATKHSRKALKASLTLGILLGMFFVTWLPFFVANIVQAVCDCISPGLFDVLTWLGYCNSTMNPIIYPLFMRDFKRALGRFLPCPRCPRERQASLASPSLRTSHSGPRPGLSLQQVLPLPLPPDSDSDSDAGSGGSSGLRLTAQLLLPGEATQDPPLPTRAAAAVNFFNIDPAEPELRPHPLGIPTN

| Compound | NanoBRET Fold Response (HTR6, tracer 0.1μM) | NanoBRET Fold Response (HTR6, tracer 1μM) | further results |
| --- | --- | --- | --- |
| CCOC(=O)c1cc(C#N)c(N2CCC(C(=O)NS(=O)(=O)Cc3ccccc3/C=C/C(=O)NCCNC(=O)CCc3ccc4n3[B-](F)(F)[N+]3=C(c5ccc[nH]5)C=CC3=C4)CC2)nc1C [AZD1283-1-NB590] | – | – | NanoBRET Fold Response (HTR6, 0.1μM): 1.05; NanoBRET Fold Response (HTR6, 1μM): 1.07 |
| N#CN/C(=N\CCNC(=O)c1ccc(N)cc1)NCCCOc1cccc(CN2CCCCC2)c1 [Aminopotentidine (unmodified)] | – | – | NanoBRET Fold Response (HTR6, other tracers/Aminopotentidine (unmodified), 0.1μM): 1.03; NanoBRET Fold Response (HTR6, other tracers/Aminopotentidine (unmodified), 1μM): 1.38 |
| N#CN=C(NCCCOc1cccc(CN2CCCCC2)c1)NCCNC(=O)CCOCCOCCOCCOCCNC(=O)CCc1ccc2n1[B-](F)(F)[N+]1=C(c3ccc[nH]3)C=CC1=C2 [Aminopotentidine-2-NB590] | 0.99 | 1.03 | – |
| CN(C)CCC=C1c2ccccc2CCc2ccc(C(=O)NCCNC(=O)CCOCCOCCOCCOCCNC(=O)CCc3ccc4n3[B-](F)(F)[N+]3=C(c5ccc[nH]5)C=CC3=C4)cc21 [Amitriptyline-a-2-NB590] | – | – | NanoBRET Fold Response (tracer at 0.1μM): 0.98; NanoBRET Fold Response (tracer at 1μM): 0.97 |
| CN(C)CCC=C1c2ccccc2CCc2ccc(C(=O)NCCNC(=O)CCOCCOCCOCCOCCNC(=O)CCc3ccc4n3[B-](F)(F)[N+]3=C(c5ccc[nH]5)C=CC3=C4)cc21 [Amitriptyline-b-2-NB590] | – | – | NanoBRET Fold Response (tracer at 0.1μM, listed as amitriptyline-b-2-NB590): 1.11; NanoBRET Fold Response (tracer at 1μM, listed as amitriptyline-b-2-NB590): 1.11 |
| CN(CCC=C1c2ccccc2CCc2ccccc21)C(=O)CCOCCOCCOCCOCCNC(=O)CCc1ccc2n1[B-](F)(F)[N+]1=C(c3ccc[nH]3)C=CC1=C2 [Amitriptyline-e-2-NB590] | – | – | NanoBRET Fold Response (tracer at 1μM): 1.01 |
| COc1ccc2c(n1)c(CCNC(C)=O)cn2CCNC(=O)CCc1ccc2n1[B-](F)(F)[N+]1=C(c3ccc[nH]3)C=CC1=C2 [Azamelatonin-1-NB590] | – | – | NanoBRET Fold Response (0.1μM tracer): 0.87; NanoBRET Fold Response (1μM tracer): 0.87 |
| COc1ccc2[nH]c(-c3ccc(CNC(=O)CCOCCOCCOCCOCCNC(=O)CCc4ccc5n4[B-](F)(F)[N+]4=C(c6ccc[nH]6)C=CC4=C5)cc3)c(CCNC(C)=O)c2n1 [AzomelatoninICO9-2-NB590] | – | – | NanoBRET Fold Response (0.1μM tracer): 0.97; NanoBRET Fold Response (1μM tracer): 0.95 |
| O=C(CCOCCOCCOCCOCCNC(=O)CCc1ccc2n1[B-](F)(F)[N+]1=C(c3ccc[nH]3)C=CC1=C2)NCCCN1CCN(C2=Nc3cc(Cl)ccc3Nc3ccccc32)CC1 [Clozapine-a-2-NB590] | – | – | NanoBRET Fold Response (HTR6, 0.1μM tracer): 1.49; NanoBRET Fold Response (HTR6, 1μM tracer): 2.05 |
| O=C(CCOCCOCCOCCOCCNC(=O)CCc1ccc2n1[B-](F)(F)[N+]1=C(c3ccc[nH]3)C=CC1=C2)NCCCN1CCN(C2=Nc3ccccc3Oc3ccc(Cl)cc32)CC1 [Loxapine-a-2-NB590] | 1.04 | 1.21 | – |
| COc1ccccc1N1CCN(CCCCN2C(=O)c3ccc(CNC(=O)CCOCCOCCOCCOCCNC(=O)CCc4ccc5n4[B-](F)(F)[N+]4=C(c6ccc[nH]6)C=CC4=C5)cc3C2=O)CC1 [NAN-190-2-NB590] | 0.99 | 1.04 | – |
| COc1ccccc1N1CCN(CCCCN2C(=O)c3ccc(CNC(=O)CCOCCNC(=O)c4ccc(CNC(=O)CCc5ccc6n5[B-](F)(F)[N+]5=C(c7ccc[nH]7)C=CC5=C6)cc4)cc3C2=O)CC1 [NAN-190-3-NB590] | 0.94 | 1.19 | – |
| O=C(CCc1ccc2n1[B-](F)(F)[N+]1=C(c3ccc[nH]3)C=CC1=C2)NCc1ccc(C(=O)NCCOCCC(=O)N[C@@H]2CC[C@@]3(O)[C@H]4Cc5ccc(O)c6c5[C@@]3(CCN4CC3CC3)[C@H]2O6)cc1 [Naltrexone-3-NB590] | 0.77 | 0.95 | – |
| Cc1cc2c(s1)Nc1ccccc1N=C2N1CCN(CCCNC(=O)CCOCCOCCOCCOCCNC(=O)CCc2ccc3n2[B-](F)(F)[N+]2=C(c4ccc[nH]4)C=CC2=C3)CC1 [Olanzapine-a-2-NB590] | 1.09 | 1.15 | – |
| O=C(CCc1ccc2n1[B-](F)(F)[N+]1=C(c3ccc[nH]3)C=CC1=C2)NCc1ccc(C(=O)NCCOCCOCCNCC(O)COc2cccc3ccccc23)cc1 (stereo not drawn) [Propranolol-3-NB590] | – | – | NanoBRET Fold Response (HTR6, 0.1μM): 1.10; NanoBRET Fold Response (HTR6, 1μM): 1.14 |
| O=C(CCc1ccc2n1[B-](F)(F)[N+]1=C(c3ccc[nH]3)C=CC1=C2)NCCOCCOCCNC(=O)OCCOCCN1CCN(C2=Nc3ccccc3Sc3ccccc32)CC1 [Quetiapine-a-2-NB590] | 0.90 | 0.98 | – |
| Cc1nc2n(c(=O)c1CCN1CCC(c3noc4cc(F)ccc34)CC1)CCCC2OC(=O)NCCOCCOCCOCCOCCNC(=O)CCc1ccc2n1[B-](F)(F)[N+]1=C(c3ccc[nH]3)C=CC1=C2 (stereo not drawn) [Risperidone-2-NB590] | 1.00 | 1.34 | – |
| CC(C)N(CC[C@H](c1ccccc1)c1cc(CCNC(=O)CCOCCOCCOCCOCCNC(=O)CCc2ccc3n2[B-](F)(F)[N+]2=C(c4ccc[nH]4)C=CC2=C3)ccc1O)C(C)C [Tolterodine-2-NB590] | 0.89 | 0.96 | – |
| CC(C)N(CC[C@H](c1ccccc1)c1cc(CCNC(=O)c2ccc(CNC(=O)CCc3ccc4n3[B-](F)(F)[N+]3=C(c5ccc[nH]5)C=CC3=C4)cc2)ccc1O)C(C)C [Tolterodine-BZ-NB590] | 0.96 | 1.05 | – |
| CCCn1c(=O)c2[nH]c(-c3ccc(OCC(=O)NCCNC(=O)CCOCCNC(=O)c4ccc(CNC(=O)CCc5ccc6n5[B-](F)(F)[N+]5=C(c7ccc[nH]7)C=CC5=C6)cc4)cc3)nc2n(CCC)c1=O [XAC-3-NB590] | 0.97 | 0.93 | – |
